The results in this text go back to patent US20120295866A1, “Synthesis And Use Of Glycoside Pro-Drug Analogs” (Nutek Pharma Ltd., priority 2011, published 2012).

In brackets after ≈: the same amount, converted by molar mass.

Series [1] can be described thus: Pharmacokinetics: concentration of propofol in rat plasma after intravenous infusion of each pro-drug, LC/MS/MS. Particulars: for Mean Concentration of Propofol in Rat Plasma After Intravenous Administration: analyte propofol from the administered compound; for pro-drug efficiency, release of propofol: releasing the propofol in a matter of minutes after infusion, rat. As for the experimental part:
(§1) Blood samples were to be taken pre-dose, during dose and post dose at designated intervals, with the blood quickly processed and stored at −70° C. until analysis.
(§2) Formulations were prepared on the morning of the dosing day and each was passed through a 0.22 μm filter prior to being administered to animals. A standard dose of 0.168 mmol/Kg per analog was administered to each of the rats. […] Analog stability in the formulations was verified by preparing each formulation and harvesting 200 μL aliquots at 0, 1, 2 and 8 hr while standing at room temperature. After harvesting, each sample was immediately frozen in dry ice until analysis; concentrations of test compounds in the samples were examined by HPLC-UV.
(§3) The animals were surgically prepared with indwelling cannula, double cannulation in carotid artery and jugular vein for i.v. infusion. The anesthetic pentobarbital was used during the surgery, and the animals were allowed to recover 3-5 days after surgery before the formulation was dosed. The dose formulation was administered intravenously via the jugular vein cannula. The 16.8 μmol/mL formulation was administered i.v. at a rate of 1 mL/Kg/min for 10 min.
(§4) Approximately 0.20 mL blood was collected at each designated time point from carotid artery via a catheter. A total of 12 plasma samples were taken from each animal: 1 pre-dose; 2 during the dose (5 into the 10 min infusion and one just prior termination of the 10 min infusion) and 9 post-infusion at 2, 5, 15, 30 min and 1, 2, 3, 4, and 6 hr post-dose. All blood samples were transferred into plastic microcentrifuge tubes containing 5 μL of K2-EDTA (0.5M) as anti-coagulant and placed on ice until processed for plasma. Blood samples were processed for plasma by centrifugation at approximately 5° C. Plasma samples were then stored in 1.5 mL tubes, quick frozen over dry ice and kept at −70±10° C. until LC/MSMS analysis.
(§5) For each, a minimum of 6 standard point curve runs in duplicates, and minimum of 5 standards were back calculated to within ±20% of their nominal concentrations. The LLOQ of each test article in plasma was established and 6 QC samples were included in assay runs of samples to ensure assay performance.
(§6) Plasma concentration versus time data was analyzed by non-compartmental approaches using the WinNonlin software program (version 5.2, Pharsight, Mountain View, Calif.) and the pharmacokinetic parameters T½, CL, Vss, AUC(0-t), AUC(0-inf), MRT, and graphs of plasma concentration versus time calculated for each.

The subject of series [2] is rats. Description: Clinical observations of rats during administration of propofol analogs in the pharmacokinetics study. Particulars: time post-10 min i.v. infusion, 0.168 mmol/Kg. As for the experimental part: as §1, §2, §3
Series [3] in a line: Pharmacokinetics: concentration of prodrug (or propofol) in rat plasma after intravenous infusion, LC/MS/MS. To be noted: for Mean concentration of prodrug and propofol in rat plasma after intravenous infusion administration: analyte = administered compound. As for the experimental part: as §1, §2, §3, §4, §5, §6
Series [4] is described as follows: Solubility determination of propofol analogs in D2O by 1H NMR with DSS internal standard. Particulars: D2O, water, thermodynamic from solid.
Experimental: Thus the soapy-like solutions obtained were diluted until opalescent and diluted further until the opalescence visually disappeared.
[5] abbreviates: male, Sprague-Dawley, rat, plasma, iv, 0.168 mmol/Kg.

As for `CC(C)c1cccc(C(C)C)c1OC(=O)OCCO[C@H]1O[C@H](CO)[C@@H](O)[C@H](O)[C@H]1O` [Compound 32], the “Mean Concentration of Propofol in Rat Plasma After Intravenous Administration” value in series [1] (Time 0 h (pre-dose)) is listed as “BQL”. Also, the “pro-drug efficiency, release of propofol” value in series [1] is on record as “very efficient pro-drugs”. The “Clinical Observation: Rats soporous at” value in series [2] is listed as “Rats soporous at about 3 min and”. Also, the “Clinical Observation: recovered at” value in series [2] was “recovered at about 26 min”. Further, the “Mean concentration of prodrug and propofol in rat plasma after intravenous infusion administration” value in series [3] (Time 0 h (pre-dose)), in series [3] (Time 0.25 h), in series [3] (Time 0.417 h), in series [3] (Time 0.667 h), in series [3] (Time 1.166 h) and in series [3] (Time 2.166 h) was “BQL” throughout. Moreover, the “Mean concentration of prodrug and propofol in rat plasma after intravenous infusion administration” value in series [3] (Time 3.166 h), in series [3] (Time 4.166 h) and in series [3] (Time 6.166 h) was “BQL” in each case. The AUC(0-t) in series [3] (setting [5]) was found to be 0.657 nM·h. For the same compound, in series [3] (setting [5]), the Cmax is 5.38 nM. The Tmax in series [3] (setting [5]) was 8.4 min. For the same compound, in series [4], the solubility amounted to 13.3 mM (≈ 5700 µg/mL).
On to `CC(C)c1cccc(C(C)C)c1OC(=O)OCCCO[C@@H]1O[C@H](CO)[C@@H](O)[C@H](O)[C@H]1O` [Compound 12], for which the “Mean Concentration of Propofol in Rat Plasma After Intravenous Administration” value in series [1] (Time 0 h (pre-dose)), in series [1] (Time 4.166 h) and in series [1] (Time 6.166 h) was “BQL” throughout. In series [1], the “pro-drug efficiency, release of propofol” value was “very efficient pro-drugs”. In series [2], the “Clinical Observation: recovered at” value is on record as “recovered at about 30 min”. For the same compound, the “Mean concentration of prodrug and propofol in rat plasma after intravenous infusion administration” value in series [3] (Time 0 h (pre-dose)), in series [3] (Time 0.2 h), in series [3] (Time 0.25 h), in series [3] (Time 0.417 h), in series [3] (Time 0.667 h) and in series [3] (Time 1.166 h) was “BQL” throughout. Further, the “Mean concentration of prodrug and propofol in rat plasma after intravenous infusion administration” value in series [3] (Time 2.166 h), in series [3] (Time 3.166 h), in series [3] (Time 4.166 h) and in series [3] (Time 6.166 h) was “BQL” throughout. Moreover, in series [3] (setting [5]), the AUC(0-inf) was 1.22 nM·h. For the same compound, the AUC(0-t) in series [3] (setting [5]) is 0.773 nM·h. Also, the Cmax in series [3] (setting [5]) was determined as 6.78 nM. Also, the MRT inf in series [3] (setting [5]) came out at 6 min. Besides, in series [3] (setting [5]), the Tmax was 10.2 min. For the same compound, the half-life in series [3] (setting [5]) is 3.6 min. In series [4], this compound showed a solubility of 5.5 mM (≈ 2430 µg/mL).

One may read the AUC(0-t) as exposure summed from dosing to a finite time, without extrapolation to infinity. Broadly, the Cmax is the peak of the concentration-time curve. The Tmax is the time at which the peak concentration occurs. One may read the solubility as the concentration that dissolves in the medium under given conditions. The low end stands for little dissolved substance, the high end for much dissolved substance. The term AUC(0-inf) denotes total exposure, with the tail of the curve extrapolated. Usually MRT inf stands for the average time that molecules of a dose stay in the body. Usually half-life stands for the time in which the quantity being followed falls by half.
